Experimental data reported in patent publication US11364248B2 (AMGEN INC., priority 2017, dated 2022).
pIC50: −log10 of the molar value. Read-outs that look alike come from different tables or passages of the source.

Assays:
Mcl-1/Bim interaction = Mcl-1/Bim interaction (Homo sapiens (Human), UniProt Q07820); assay: Cell Free Mcl-1: Bim Affinity Assay (Mcl-1 HTRF); assay type: binding; details: TR-FRET, recombinant human Mcl-1(171-327), biotin-Bim(51-76); read-out: Mel-1 HTRF IC50
Experimental: Cell Free Mcl-1: Bim Affinity Assay (Mcl-1 HTRF)
The inhibition of the Mcl-1/Bim interaction was measured using a time-resolved fluorescence resonance energy transfer (TR-FRET) assay. The recombinant human Mcl-1 (C-terminally 6×His tagged Mcl-1 containing residues 171-327) was generated at Amgen Inc (Thousand Oaks, Calif.). A biotinylated peptide derived from human Bim (residues 51-76) was purchased from CPC Scientific (San Jose, Calif.). The TR-FRET assay was conducted in a 384-well white OptiPlate™ (PerkinElmer, Waltham, Mass.) in a total volume of 40 μL. The reaction mixture contained 0.1 nM Mcl-1(171-327), 0.05 nM biotin-Bim(51-76), 0.05 nM LANCER Eu-W1024 Anti-6×His (PerkinElmer), 0.072 nM Streptavidin-Xlent (Cisbio, Bedford, Mass.), and serially diluted test compounds in the binding buffer of 20 mM Hepes, pH 7.5, 150 mM NaCl, 0.016 mM Brij©35, and 1 mM dithiothreitol. Test compounds were pre-incubated with Mcl-1(171-327) and biotin-Bim (51-76) for 60 min before addition of the detection mixture (LANCE Eu-W1024 Anti-6×His and Streptavidin-Xlent). The reaction plates were further incubated overnight and then were read on an Envision® multimode reader (PerkinElmer). Fluorescence signals were measured at 620 nm (40-nm bandwidth) and 665 nm (7.5-nm bandwidth) with a 60 μs delay after excitation at 320 nm (75-nm bandwidth). The signal ratio at 665/620 nm corresponded to the Mcl-1/Bim interaction and was used in all data analyses. The IC50 values of test compounds were determined from duplicate data by analyzing competition curves using a four-parameter sigmoidal model in GraphPad Prism (GraphPad Software, San Diego, Calif.) or in Genedata Screener® (Genedata, Basel, Switzerland).

OPM-2 = assay: Cell Viability Assay (OPM-2 10 FBS); assay type: cell-based, human; details: OPM-2 cells, CellTiter-Glo, read-out: OPM-2 10% FBS IC50 IP
Experimental: Cell Viability Assay (OPM-2 10 FBS)
The human multiple myeloma cell line, OPM-2, was cultured in complete growth medium containing RPMI 1640 and 10% fetal bovine serum (FBS). Cells were seeded into 384-well plates at 3000 cells/well density in complete growth medium containing 10% FBS, and incubated for 16 h with serially diluted test compounds in a 37° C. incubator with 5% CO2. Cell viability was tested using CellTiter-Glo® assay (Promega, Madison, Wis.) according to the manufacturer recommendations. Luminescence was determined using an EnVision® Multilabel plate reader 25 min after the addition of detection reagent. IC50 values were then calculated with Xlfit using a logistical 4-parameter fit model in GraphPad Prism (GraphPad Software, San Diego, Calif.) or in Genedata Screener® (Genedata, Basel, Switzerland).

Chain of Mcl-1/Bim interaction (Q07820 171-327): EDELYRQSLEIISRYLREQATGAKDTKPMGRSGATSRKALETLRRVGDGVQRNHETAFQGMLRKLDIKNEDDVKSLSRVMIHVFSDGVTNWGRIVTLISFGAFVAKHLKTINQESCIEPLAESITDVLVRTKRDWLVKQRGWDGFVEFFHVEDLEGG

## CCN(C)[C@H]1CO[C@@H]([C@H]2CCC[C@H](C)[C@@H](C)S(=O)(=O)NC(=O)c3ccc4c(c3)N(C[C@@H]3CC[C@H]32)C[C@@]2(CCCc3cc(Cl)ccc32)CO4)OC1 (relative stereo) [Example 46]
Mcl-1/Bim interaction
  pIC50: 9.47
OPM-2; 16 h
  pIC50: 7.33

## C[C@@H]1[C@@H](C)CCC[C@H]([C@H]2OC[C@@H](N3CC4(COC4)C3)CO2)[C@@H]2CC[C@H]2CN2C[C@@]3(CCCc4cc(Cl)ccc43)COc3ccc(cc32)C(=O)NS1(=O)=O (relative stereo) [Example 59]
Mcl-1/Bim interaction
  pIC50: 9.50
OPM-2; 16 h
  pIC50: 7.05

## C[C@@H]1[C@@H](C)CCC[C@H]([C@H]2OC[C@@](CO)(N(C)C)CO2)[C@@H]2CC[C@H]2CN2C[C@@]3(CCCc4cc(Cl)ccc43)COc3ccc(cc32)C(=O)NS1(=O)=O (relative stereo) [Example 81, (1S,3′R,6′R,7′S,11′S,12′R)-6-chloro-7′-(cis-5-(dimethylamino)-5-(hydroxymethyl)-1,3-dioxan-2-yl)-11′,12′-dimethyl-3,4-dihydro-2H,15′H-spiro[naphthalene-1,22′-[20]oxa[13]thia[1,14]diazatetracyclo [14.7.2.0~3,6~.0~19,24~]pentacosa[16,18,24]trien]-15′-one 13′,13′-dioxide]
Mcl-1/Bim interaction
  pIC50: 8.48
OPM-2; 16 h
  pIC50: 5.60

## C[C@@H]1[C@@H](C)C/C=C/[C@@H]([C@H]2OC[C@H](N(C)C)CO2)[C@@H]2CC[C@H]2CN2C[C@@]3(CCCc4cc(Cl)ccc43)COc3ccc(cc32)C(=O)NS1(=O)=O (relative stereo) [Example 96]
Mcl-1/Bim interaction
  pIC50: 9.34
OPM-2; 16 h
  pIC50: 6.50

## C[C@@H]1[C@@H](C)C/C=C/[C@H]([C@H]2OC[C@@H](N(C)C)CO2)[C@@H]2CC[C@H]2CN2C[C@@]3(CCCc4cc(Cl)ccc43)COc3ccc(cc32)C(=O)NS1(=O)=O (relative stereo) [Example 97]
Mcl-1/Bim interaction
  pIC50: 9.51
OPM-2; 16 h
  pIC50: 7.08

## CO[C@H]1CO[C@@H]([C@@H]2CCC[C@H](C)[C@@H](C)S(=O)(=O)NC(=O)c3ccc4c(c3)N(C[C@@H]3CC[C@H]32)C[C@@]2(CCCc3cc(Cl)ccc32)CO4)OC1 (single isomer, unassigned) [Example 25]
Mcl-1/Bim interaction
  pIC50: 9.33
OPM-2; 16 h
  pIC50: 6.04

## CO[C@H]1CO[C@@H]([C@@H]2CCC[C@H](C)[C@@H](C)S(=O)(=O)NC(=O)c3ccc4c(c3)N(C[C@@H]3CC[C@H]32)C[C@@]2(CCCc3cc(Cl)ccc32)CO4)OC1 (single isomer, unassigned) [Example 26]
Mcl-1/Bim interaction
  pIC50: 8.21
OPM-2; 16 h
  pIC50: 4.84

## C[C@@H]1[C@@H](C)CCC[C@@H]([C@H]2OC[C@@H](CN(C)C)O2)[C@@H]2CC[C@H]2CN2C[C@@]3(CCCc4cc(Cl)ccc43)COc3ccc(cc32)C(=O)NS1(=O)=O (single isomer, unassigned) [Example 29]
Mcl-1/Bim interaction
  pIC50: 9.08
OPM-2; 16 h
  pIC50: 6.50

## C[C@@H]1[C@@H](C)CCC[C@@H]([C@H]2OC[C@@H](CN(C)C)O2)[C@@H]2CC[C@H]2CN2C[C@@]3(CCCc4cc(Cl)ccc43)COc3ccc(cc32)C(=O)NS1(=O)=O (single isomer, unassigned) [Example 30]
Mcl-1/Bim interaction
  pIC50: 8.29
OPM-2; 16 h
  pIC50: 5.61

## C[C@@H]1[C@@H](C)CCC[C@@H]([C@H]2OC[C@H](CN(C)C)O2)[C@@H]2CC[C@H]2CN2C[C@@]3(CCCc4cc(Cl)ccc43)COc3ccc(cc32)C(=O)NS1(=O)=O (single isomer, unassigned) [Example 33]
Mcl-1/Bim interaction
  pIC50: 9.21
OPM-2; 16 h
  pIC50: 6.50

## C[C@@H]1[C@@H](C)CCC[C@@H]([C@H]2OC[C@H](CN(C)C)O2)[C@@H]2CC[C@H]2CN2C[C@@]3(CCCc4cc(Cl)ccc43)COc3ccc(cc32)C(=O)NS1(=O)=O (single isomer, unassigned) [Example 34]
Mcl-1/Bim interaction
  pIC50: 7.96
OPM-2; 16 h
  pIC50: 5.23

## CC(=O)N1C[C@@H]2O[C@@H]([C@H]3CCC[C@H](C)[C@@H](C)S(=O)(=O)NC(=O)c4ccc5c(c4)N(C[C@@H]4CC[C@H]43)C[C@@]3(CCCc4cc(Cl)ccc43)CO5)O[C@@H]2C1 (single isomer, unassigned) [Example 39]
Mcl-1/Bim interaction
  pIC50: 9.43
OPM-2; 16 h
  pIC50: 6.24

## C[C@@H]1[C@@H](C)CCC[C@@H]([C@H]2OC[C@@H](N3CC(F)C3)CO2)[C@@H]2CC[C@H]2CN2C[C@@]3(CCCc4cc(Cl)ccc43)COc3ccc(cc32)C(=O)NS1(=O)=O (single isomer, unassigned) [Example 50]
Mcl-1/Bim interaction
  pIC50: 9.31
OPM-2; 16 h
  pIC50: 6.90

## C[C@@H]1[C@@H](C)CCC[C@@H]([C@H]2OC[C@@H](N3CC(F)C3)CO2)[C@@H]2CC[C@H]2CN2C[C@@]3(CCCc4cc(Cl)ccc43)COc3ccc(cc32)C(=O)NS1(=O)=O (single isomer, unassigned) [Example 51]
Mcl-1/Bim interaction
  pIC50: 9.12
OPM-2; 16 h
  pIC50: 6.00

## C[C@@H]1[C@@H](C)CCC[C@@H]([C@H]2OC[C@@H](N3CC(Cl)C3)CO2)[C@@H]2CC[C@H]2CN2C[C@@]3(CCCc4cc(Cl)ccc43)COc3ccc(cc32)C(=O)NS1(=O)=O (single isomer, unassigned) [Example 55]
Mcl-1/Bim interaction
  pIC50: 9.13
OPM-2; 16 h
  pIC50: 6.33

## C[C@@H]1[C@@H](C)CCC[C@@H]([C@H]2OC[C@@H](N3CC(Cl)C3)CO2)[C@@H]2CC[C@H]2CN2C[C@@]3(CCCc4cc(Cl)ccc43)COc3ccc(cc32)C(=O)NS1(=O)=O (single isomer, unassigned) [Example 56]
Mcl-1/Bim interaction
  pIC50: 8.70
OPM-2; 16 h
  pIC50: 5.72

## C[C@@H]1[C@@H](C)CCC[C@@H]([C@H]2OC[C@@H](N3CC(O)C3)CO2)[C@@H]2CC[C@H]2CN2C[C@@]3(CCCc4cc(Cl)ccc43)COc3ccc(cc32)C(=O)NS1(=O)=O (single isomer, unassigned) [Example 61]
Mcl-1/Bim interaction
  pIC50: 9.34
OPM-2; 16 h
  pIC50: 6.00

## C[C@@H]1[C@@H](C)CCC[C@@H]([C@H]2OC[C@@H](N3CC(O)C3)CO2)[C@@H]2CC[C@H]2CN2C[C@@]3(CCCc4cc(Cl)ccc43)COc3ccc(cc32)C(=O)NS1(=O)=O (single isomer, unassigned) [Example 62]
Mcl-1/Bim interaction
  pIC50: 8.68
OPM-2; 16 h
  pIC50: 5.35

## C[C@@H]1[C@@H](C)CCC[C@@H]([C@H]2OC[C@@H](N3CCC3(C)C)CO2)[C@@H]2CC[C@H]2CN2C[C@@]3(CCCc4cc(Cl)ccc43)COc3ccc(cc32)C(=O)NS1(=O)=O (single isomer, unassigned) [Example 63]
Mcl-1/Bim interaction
  pIC50: 8.69
OPM-2; 16 h
  pIC50: 5.94

## C[C@@H]1[C@@H](C)CCC[C@@H]([C@H]2OC[C@@H](N3CCC3(C)C)CO2)[C@@H]2CC[C@H]2CN2C[C@@]3(CCCc4cc(Cl)ccc43)COc3ccc(cc32)C(=O)NS1(=O)=O (single isomer, unassigned) [Example 64]
Mcl-1/Bim interaction
  pIC50: 8.31
OPM-2; 16 h
  pIC50: 5.13

## C[C@@H]1[C@@H](C)CCCC(C2OCC(N)(CO)CO2)[C@@H]2CC[C@H]2CN2C[C@@]3(CCCc4cc(Cl)ccc43)COc3ccc(cc32)C(=O)NS1(=O)=O (single isomer, unassigned) [Example 80]
Mcl-1/Bim interaction
  pIC50: 9.42
OPM-2; 16 h
  pIC50: 6.62

## C[C@@H]1[C@@H](C)CCCC(C2OCC(CO)(N(C)C)CO2)[C@@H]2CC[C@H]2CN2C[C@@]3(CCCc4cc(Cl)ccc43)COc3ccc(cc32)C(=O)NS1(=O)=O (single isomer, unassigned) [Example 86]
Mcl-1/Bim interaction
  pIC50: 9.35
OPM-2; Homo sapiens, OPM-2, 16 h
  pIC50: 6.75

## C[C@@H]1[C@@H](C)CCC[C@H]([C@H]2O[C@H]3CNC[C@H]3O2)[C@@H]2CC[C@H]2CN2C[C@@]3(CCCc4cc(Cl)ccc43)COc3ccc(cc32)C(=O)NS1(=O)=O (stereo in doubt) [Example 9, (1S,3′R,6′R,7′R,11′S,12′R)-6-chloro-11′,12′-dimethyl-7′-((2r,3aR,6aS)-tetrahydro-3aH-[1,3]dioxolo[4,5-c]pyrrol-2-yl)-3,4-dihydro-2H,15′H-spiro[naphthalene-1,22′-[20]oxa[13]thia[1,14]diazatetracyclo [14.7.2.0~3,6~.0~19,24~]pentacosa[16,18,24]trien]-15′-one 13′,13′-dioxide]
Mcl-1/Bim interaction
  pIC50: 9.31
OPM-2; 16 h
  pIC50: 6.42
